Measurements: US11179371B2, “Triazole benzamide derivatives as GPR142 agonists” (Boehringer Ingelheim International GmbH, priority 2018, dated 2021)

Molecular target: T1, human GPR142 receptor (Homo sapiens, UniProt Q7Z601)
T1 construct: Gene ID: 350383) was cloned; expressed in transfected cells
T1 sequence (Q7Z601 1-462): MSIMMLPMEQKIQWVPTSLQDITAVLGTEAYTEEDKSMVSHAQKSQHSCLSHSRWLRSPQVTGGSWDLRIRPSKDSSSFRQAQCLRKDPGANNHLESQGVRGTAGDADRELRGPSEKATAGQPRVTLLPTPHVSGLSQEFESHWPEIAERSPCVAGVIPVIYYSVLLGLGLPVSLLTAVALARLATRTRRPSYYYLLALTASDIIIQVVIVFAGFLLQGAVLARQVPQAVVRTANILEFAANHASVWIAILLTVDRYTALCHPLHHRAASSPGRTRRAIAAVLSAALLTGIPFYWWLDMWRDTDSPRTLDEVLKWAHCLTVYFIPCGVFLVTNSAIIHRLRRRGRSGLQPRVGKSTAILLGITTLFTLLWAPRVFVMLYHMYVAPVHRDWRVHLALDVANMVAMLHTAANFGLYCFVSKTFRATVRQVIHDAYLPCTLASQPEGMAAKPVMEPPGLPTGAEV
Test: IP1 accumulation HTRF assay for GPR142 agonist activity in HEK293 FLPinTREX cells
Format: cell-based
Conditions: HEK293 FLPinTREX cells stably expressing human GPR142, IP1 generation (IP-One HTRF), 60 minutes at 37° C.
Experimental: This assay allows monitoring activity of compounds acting on Gq-coupled receptors. The principle of the assay is based on the competition between IP1 generated in the cells with d2-labeled IP1 for binding to a monoclonal anti-IP1 […] cryptate that allows for measuring quantitative changes using the Homogeneous Time Resolved Fluorescence. LiCl is added to the cell stimulation buffer, causing IP1 to accumulate upon receptor activation.
The open reading frame encoding the human GPR142 receptor (primary accession number: NM_181790; Gene ID: 350383) was cloned into the pcDNA5/FRT/TO vector for stable, and inducible expression using the Flp-In™ T-REx™ technology in HEK293 FLPinTREX cells. For stable expression, HEK293 FLPinTREX cells were co-transfected with the vector encoding human GPR142 and the pOG44 plasmid that constitutively expresses the Flp recombinase for stable integration of the human GPR142 into the genome of the Flp-In™ T-REx™ host cell line. Stably expressing clones were obtained by hygromycin (100 μg/ml) selection. To test for GPR142 agonist activity the human GPR142 receptor cell clone was thawed at 37° C. and immediately diluted with cell culture medium (Hams F12 medium; 10% FBS, 15 μg/ml Blasticidin, 100 μg/ml Hygromycin B). After centrifugation, the cell pellet was resuspended in medium, and distributed into the assay well plates (10000 cells/well; 20 μl/well). Receptor expression was induced by adding 0.1 μg/ml Doxycyclin to the culture medium. The plates were incubated for one hour at room temperature, followed by a 24 hours incubation at 37° C./5% CO2. After washing the cells in the plate twice with 60 μl assay buffer (10 mM HEPES, 1 mM CaCl2, 0.5 mM MgCl2, 4.2 mM KCl, 146 mM NaCl, 5.5 mM Glucose, 50 mM LiCl and 0.1% BSA, pH 7.4; 20 μl buffer remained in the wells after washing), 10 μl per well of test compound diluted in assay buffer was added to the wells. The assay plate was incubated for 60 minutes at 37° C. Then 5 μl per well of Anti-IP1-Cryptate Tb solution (prepared by 1:33 dilution of stock with Lysis buffer from IP-One Kit) and 5 μl per well of IP1-d2 (Prepared by 1:33 dilution of stock with Lysis buffer from IP-One Kit) dilution were added, followed by another 60 minutes incubation (light protected, room temperature). The emissions at 615 nm and 665 nm (excitation wavelength: 320 nm) were measured on the EnVision™ reader (PerkinElmer). The ratio between the emission at 665 nm and 615 was calculated by the reader.
Each assay microtiter plate contained 8 wells in with vehicle controls instead of compound (100% CTL; low values, negative control) and 8 wells with a reference GPR142 agonist (200% CTL; high values; positive control). An IP1 standard curve was prepared according to the manufacturer.
The ratio between the emission at 665 nm and the emission at 615 nm (Em665/Em615 ratio) was calculated and the signals for the test items were normalized using the positive and negative controls by the following formula: 100−(100×[(ratio(sample)−ratio(low))/(ratio(high)−ratio(low))].

SMILES | EC50 [nM]
Cc1ncn(C)c1-c1cn(-c2cccc(C(=O)Nc3cccc(OC(F)(F)F)c3)c2)nn1 [Example 18] | 0.64
Cn1cncc1-c1cn(-c2cccc(C(=O)Nc3cccc([N+](=O)[O-])c3)c2)nn1 [Example 15] | < 0.38
Cc1ccc(C(=O)Nc2cccc(OC(F)(F)F)c2)cc1-n1cc(-c2cncn2C)nn1 [Example 6] | 0.21
Cn1cncc1-c1cn(-c2cccc(C(=O)Nc3cccc(OC(F)F)c3)c2)nn1 [Example 19] | < 0.38
Cn1cncc1-c1cn(-c2cccc(C(=O)Nc3cccc(OC(F)(F)C(F)F)c3)c2)nn1 [Example 20] | 0.64
Cc1ccc(C(=O)Nc2cccc(Cl)c2)cc1-n1cc(-c2cncn2C)nn1 [Example 5] | 0.37
Cn1cncc1-c1cn(-c2cccc(C(=O)Nc3cccc(C#N)c3)c2)nn1 [Example 11] | 0.74
Cc1ncn(C)c1-c1cn(-c2cccc(C(=O)Nc3cccc(C(F)(F)F)c3)c2)nn1 [Example 8, 3-[4-(1,4-Dimethyl-1H-imidazol-5-yl)-1H-1,2,3-triazol-1-yl]-N-[3-(trifluoromethyl)-phenyl]benzamide] | 0.63
COc1cccc(NC(=O)c2cccc(-n3cc(-c4cncn4C)nn3)c2)c1 [Example 14] | 0.86
Cn1cncc1-c1cn(-c2cccc(C(=O)Nc3cccc(Cl)c3)c2)nn1 [Example 3] | 0.21
Cn1cncc1-c1cn(-c2cccc(C(=O)Nc3cccc(C(F)(F)F)c3)c2)nn1 [Example 2, 3-[4-(1-Methyl-1H-imidazol-5-yl)-1H-1,2,3-triazol-1-yl]-N-[3-(trifluoromethyl)-phenyl]benzamide] | 0.05
Cc1cccc(NC(=O)c2cccc(-n3cc(-c4cncn4C)nn3)c2)c1 [Example 7] | 0.37
Cc1ncn(C)c1-c1cn(-c2cccc(C(=O)Nc3cccc(Cl)c3)c2)nn1 [Example 17] | 0.95
Cn1cncc1-c1cn(-c2cccc(C(=O)Nc3cc(F)cc(C(F)(F)F)c3)c2)nn1 [Example 10] | < 0.38
Cn1cncc1-c1cn(-c2cccc(C(=O)Nc3cccc(OC(F)(F)F)c3)c2)nn1 [Example 4] | 0.47
COC(=O)c1cccc(NC(=O)c2cccc(-n3cc(-c4cncn4C)nn3)c2)c1 [Example 12] | 0.73
Cn1cncc1-c1cn(-c2cccc(C(=O)Nc3cccc(C(F)(F)F)c3F)c2)nn1 [Example 9] | 0.45
Cc1ccc(C(=O)Nc2cccc(C(F)(F)F)c2)cc1-n1cc(-c2cncn2C)nn1 [Example 1] | 0.4
Cc1cc(Br)cc(NC(=O)c2cccc(-n3cc(-c4cncn4C)nn3)c2)c1 [Example 16] | < 0.38
CN(C)c1cccc(NC(=O)c2cccc(-n3cc(-c4cncn4C)nn3)c2)c1 [Example 13] | 0.85
